Where two headings read alike, the source gives them in different places.
Key:
[1] = system: Desulfovibrio vulgaris Hindelborough (DvH); experiment: H2S production by stationary-phase DvH culture on lactate/sulfate medium with metabolic inhibitors; type: cell-based; settings: for effect of metabolic inhibitor on DvH culture / H2S production: tested at different concentrations
Procedure: Experiments were carried out with the SRB bacterium Desulfovibrio vulgaris Hindelborough (DvH) for which the genome has been sequenced and which is the model system for the study of sulfate-reducing bacteria.
The culture medium was a lactate/sulfate medium comprising: sodium sulfate 28 mM, magnesium sulfate 8 mM, lactate 45 mM and oligoelements (iron, Zn, Mn, Cu, Co, Mo, Ni, Se, W, Mg).
Various metabolic inhibitors were tested at different concentrations; examples were the addition of iron, oxygen, or a detergent. […] The study was continued by looking at the effect of adding small defined quantities of nitrite and nitrate on the production of H2S by the SRB.

[2] = system: DvH+Shewanella consortium; settings: 5 mM; for production of H2S: FIG. 3 panel B
From the text: FIG. 3 represents the effect of adding exogenous bacteria of the Shewanella type on the growth of a strain of sulfate-reducing bacteria, DvH, in the presence of nitrate or nitrite (panel A, %=quantity of biomass expressed as a % of the optical density (OD) at 600 nm [nanometers], such that 100% represents the OD at 600 nm for the biomass of a culture of DvH on a lactate/sulfate medium in the absence of treatment) and on the production of H2S (panel B, mM H2S). The control (growth and production of H2S) used a DvH culture with or without the addition of inhibitor. The effect of adding the Shewanella bacteria on the growth and production of H2S is presented in the presence of nitrate (+nitrite) and in the absence of nitrite (nitrite). The Shewanella bacteria alone had no significant effect on H2S production. In FIG. 3, the various symbols represent the experiments under the following conditions: ? =5 mM of nitrate on a DvH+Shewanella consortium, ? =consortium of DvH+Shewanella bacteria in the presence of 5 mM of nitrite, ? =presence of DvH bacteria alone, ? =presence of DvH bacteria alone+nitrite;
A wide range of non-pathogenic aerobic and anaerobic bacteria known to be decontaminants that are compatible with a toxic environment was tested, including the following Gram− aerobic bacteria: Shewanella oneidensis, Rhodobacter sphaeroides, Rhodobacter denitrificans, R. velkampi, Pseudomonas stutzeri, Pseudomonas zobell and Rhospeudomonas palustri, as well as the following anaerobic Gram+ bacteria: Bacillus mojavensis and Bacillus amiloliquefaciens.
However, it has been discovered that it is possible to overcome this bactericidal effect problem by adding exogenic bacteria.

[3] = system: SRB bacteria that produce H2S; settings: treatment with nitrite alone; cited from earlier work
[4] = system: sulfate-reducing bacteria (SRB)
Procedure: Experiments were carried out on a sewerage system diagrammatically shown in FIG. 6, comprising a cesspool 3 supplied with effluent 1 from a conduit 11, a lifting pump 4 that was used to supply a force main 2 from the cesspool 3 to a holding tank 8 cooperating with a gravity fed transfer conduit 9 to a treatment plant (not shown).
The force main 2 was 1170 m [meter] long with a nominal diameter of 250 mm [millimeter], giving a volume of 57.5 m^3. The delivery of the lifting pump was 150 m^3/hour. A nitrite tank 12 cooperated with a dosing pump 7 to inject nitrite into the effluents entering the force main 2.
Sodium nitrite NaNO2 was tested in 40% by weight solution with a density of 1.3. This reagent was injected directly into the effluent pumping pit almost level with the inlet thereof into the force main via a dedicated dosing pump 7 that could reach a delivery of up to 14 L/h. Start-up of the dosing pump 7 was linked with that of the lifting pump 4 with the two pumps being stopped by a low level of effluents in the cesspool 3.
Various measurements for the concentration of sulfide in water leaving the force main were carried out. The concentration of sulfide in water was determined by means of an assay kit using the reaction of H2S with aniline forming a colorless intermediate that is oxidized by ferric ions to a colored compound: methylene blue, an optical disk comparator with a color gradient, was used to determine the concentration of sulfide in the solution as a function of its color. The temperatures of the effluent and redox potential were measured at the holding tank or settling tank 8 using standard equipment.

[5] = system: bacteria from the sludge sample (Shigella/Escherichia coli/Salmonella, Clostridium, Desulfovibrio type)
[6] = system: Desulfovibrio vulgaris Hindelborough (DvH); settings: SRB pure strain (DvH alone), FIG. 2
From the text: FIG. 2 represents the relationship between the quantity of biomass (%) and the production of H2S (mM) for a stationary phase culture of DvH bacteria in the presence of different concentrations of nitrites or nitrates in the culture medium. The quantity of biomass (bacterial survival) is expressed as the % optical density (OD) at 600 nm [nanometer] compared with the OD at 600 nm of the biomass for a DvH culture on a lactate/sulfate medium in the absence of treatment, this culture representing 100%;
In FIG. 2, the quantities of biomass (% growth) and production of H2S (mM) are shown under the following conditions: ? =% growth+nitrite, ? =H2S production+nitrite, ? =% growth+nitrate, ? H2S production+nitrate;
In FIG. 2, bacterial survival was monitored.

## [Fe] [iron]
[1]
  effect of metabolic inhibitor on DvH culture / H2S production: induced a drastic oxidizing stress and caused bacterial death

## O=[N+]([O-])O [nitrate]
[1]
  concentration giving visible and substantial inhibition of H2S production: 15 mM
  reduction of the production of H2S: approximately 90%
[2]
  production of H2S: no significant reduction in H2S production was observed

## O=NO [nitrite]
[3]
  effect on hydrogen sulfide production: No effect on hydrogen sulfide production is observed
[1]
  concentration giving visible and substantial inhibition of H2S production: ≥ 5 mM
  reduction of the production of H2S: approximately 90%
[4]; after 24 h
  rise in the sulfide concentrations after stopping the nitrite treatment: no more than 25%
[4]; after stopping treatment
  rise in the sulfide concentrations after stopping the nitrite treatment: approximately 10%
[2]; FIG. 3 panel A
  biomass: maintaining the biomass
[2]
  production of H2S: reduction in the production of H2S
[5]; beyond 5 mM of nitrite
  biomass (bactericidal effect): biomass was slightly affected
  inhibiting effect on H2S production: inhibiting effect on H2S production reduced
[5]; even in the absence of Shewanella, concentration 5 mM or less
  cell death: did not induce cell death
[5]; nitrite consumed over time
  duration of the effect on the bacteria after nitrite is consumed: long-lasting effect or remanence effect
[5]; sludge sample
  concentration from which a drop in the production of H2S is induced: ≥ 3 mM

## O=O [oxygen]
[1]
  effect of metabolic inhibitor on DvH culture / H2S production: production of H2S restarted as soon as the redox potential of the medium became negative again

## O=NO [sodium nitrite]
[4]; 2.5 g/m^3 to 6 g/m^3 per g/m^3 of sulfide to be reduced, every other day or overnight
  maximum quantity of dissolved sulfide H2S at the outlet from the force main: ≤ 1.5 mg/L
[4]; 4 g to 5 g per gram of dissolved sulfide produced in the absence of treatment
  quantity of dissolved sulfites at the force main outlet: ≤ 1 mg/L
[4]; daily treatments with 2.5 g/m^3 to 6 g/m^3 of NaNO2
  reduction of dissolved sulfide produced by the conduit: 1 g/m^3
[4]; on-site, transient and intermittent treatment
  remanence of inhibiting activity: remanence effect
[6]
  bacterial survival: lethal effect on bacteria
